For assay [1], the system named is Plasmodium berghei. As to conditions: cited from earlier work.
Assay [2] deals with Plasmodium yoelli nigeriensis. As to conditions: cited from earlier work.
In assay [3] the test system is Plasmodium cynomolgi. As to conditions: rhesus monkey; cited from earlier work.
For assay [4], the system named is Plasmodium vivax. Particulars: non-immune patients, as compared to controls; cited from earlier work.
Assay [5] concerns Plasmodium falciparum. Particulars: non-immune patients, as compared to controls; cited from earlier work.
The subject of assay [6] is Plasmodium falciparum clone CDC/Sierra Leone I (D-6). Briefly: In vitro antimalarial [3H]-hypoxanthine incorporation serial dilution assay, D6. It is filed as cell-based. Particulars: Plasmodium falciparum, D6, 72 h, P. falciparum D6, 72 hours exposure. The procedure, abridged: (§1)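 IC50 came from logistic fitting of eleven two-fold compound dilutions, read as [3H]-hypoxanthine uptake into parasite DNA relative to untreated infected wells after 72 h. Parasites were grown in A+ human erythrocytes (6%) in RPMI-1640 with plasma or ALBUMAX at 37° C, 5% CO2, 5% O2.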

The test system of assay [7] is Plasmodium falciparum TM91C235. Description: In vitro antimalarial [3H]-hypoxanthine incorporation assay, TM91C235. As to conditions: Plasmodium falciparum; P. falciparum TM91C235 (multiple drug resistant isolate), 72 hours exposure. In kind it is cell-based. The gist of the method:
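Growth was read by [3H]-hypoxanthine incorporation after 72 h total incubation, as CPM normalized to the mean of untreated infected controls. Erythrocytic-stage TM91C235 (0.4% parasitemia, 1% hematocrit, ALBUMAX medium without folate or PABA, 5% O2/5% CO2, 37° C) was first exposed 48 h to compound at three levels, 25–25,000 ng/ml, in duplicate.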

Assay [8] relates to Plasmodium falciparum clone CDC/Indochina III (W-2). Description: In vitro antimalarial [3H]-hypoxanthine incorporation serial dilution assay, W2. In kind it is cell-based. As to conditions: Plasmodium falciparum; P. falciparum W2, 72 hours exposure. The procedure, abridged: as §1

≈ marks a conversion by molar mass, not a printed value. Read-outs that look alike come from different tables or passages of the source. A value given as a limit tells only on which side of the number the result lay.

Consider midecamycinin, for which the “activity in mouse model” value in assay [1] and in assay [2] was “active” in each case. Besides, in assay [3], the “efficacy in monkey model” value is “no efficacy”.

With `CC[C@H]1OC(=O)[C@H](C)[C@@H](O[C@H]2C[C@@](C)(OC)[C@@H](O)[C@H](C)O2)[C@H](C)[C@@H](O[C@@H]2O[C@H](C)C[C@H](N(C)C)[C@H]2O)[C@](C)(O)C[C@@H](C)CN(C)[C@H](C)[C@@H](O)[C@]1(C)O` [azithromycin], the “prophylactic efficacy for Plasmodium vivax” value in assay [4] is on record as 98.9%. Also, in assay [5], the “prophylactic efficacy for Plasmodium falciparum” value is 71.6%. Besides, the “efficacy in monkey model” value in assay [3] is “active”.

Take `CC[C@H]1OC(=O)[C@H](C)[C@@H](O[C@H]2C[C@@](C)(OC)[C@@H](O)[C@H](C)O2)[C@H](C)[C@@H](O[C@@H]2O[C@H](C)C[C@H](N(C)C)[C@H]2O)[C@](C)(O)C[C@@H](C)CN(CCCNC(=S)NC(c2ccccc2)(c2ccccc2)c2ccccc2)[C@H](C)[C@@H](O)[C@]1(C)O.O=CO` [Example 125]: the IC50 in assay [6] (read-out: IC50 D6) amounted to 0.142 µg/mL; in assay [7], 0.0364 µg/mL; in assay [8] it was 0.0422 µg/mL.

For the compound `CC[C@H]1OC(=O)[C@H](C)[C@@H](O[C@H]2C[C@@](C)(OC)[C@@H](O)[C@H](C)O2)[C@H](C)[C@@H](O[C@@H]2O[C@H](C)C[C@H](N(C)C)[C@H]2O)[C@](C)(O)C[C@@H](C)CN(CCCNC(=O)Nc2cccc(F)c2)[C@H](C)[C@@H](O)[C@]1(C)O.O=CO` [Example 81], the IC50 in assay [6] (read-out: IC50 D6) amounted to 0.565 µg/mL; in assay [7], 0.16 µg/mL; in assay [8], 0.278 µg/mL.

For `CC[C@H]1OC(=O)[C@H](C)[C@@H](O[C@H]2C[C@@](C)(OC)[C@@H](O)[C@H](C)O2)[C@H](C)[C@@H](O[C@@H]2O[C@H](C)C[C@H](N(C)C)[C@H]2O)[C@](C)(O)C[C@@H](C)CN(CCCNC(=S)Nc2ccc(OC(F)F)cc2)[C@H](C)[C@@H](O)[C@]1(C)O.O=CO` [Example 134], the values for the half-maximal inhibitory concentration (IC50) in assay [6] (read-out: IC50 D6), in assay [7] and in assay [8] were 0.398 µg/mL, 0.0997 µg/mL and 0.279 µg/mL, respectively.

As for `CCc1ccccc1NC(=S)NCCCN1C[C@H](C)C[C@@](C)(O)[C@H](O[C@@H]2O[C@H](C)C[C@H](N(C)C)[C@H]2O)[C@@H](C)[C@H](O[C@H]2C[C@@](C)(OC)[C@@H](O)[C@H](C)O2)[C@@H](C)C(=O)O[C@H](CC)[C@@](C)(O)[C@H](O)[C@H]1C` [Example 101], the half-maximal inhibitory concentration (IC50) came out at 0.425 µg/mL (≈ 0.445 µM) in assay [6] (read-out: IC50 D6), 0.24 µg/mL (≈ 0.252 µM) in assay [7] and 0.0919 µg/mL (≈ 0.0962 µM) in assay [8].

As to `CC[C@H]1OC(=O)[C@H](C)[C@@H](O[C@H]2C[C@@](C)(OC)[C@@H](O)[C@H](C)O2)[C@H](C)[C@@H](O[C@@H]2O[C@H](C)C[C@H](N(C)C)[C@H]2O)[C@](C)(O)C[C@@H](C)CN(CCCNC(=O)Nc2cc(C)oc2C(F)(F)F)[C@H](C)[C@@H](O)[C@]1(C)O.O=CO` [Example 88], the IC50 is 0.371 µg/mL in assay [6] (read-out: IC50 D6), 0.33 µg/mL in assay [7] and 0.319 µg/mL in assay [8].

Turning to `CC[C@H]1OC(=O)[C@H](C)[C@@H](O[C@H]2C[C@@](C)(OC)[C@@H](O)[C@H](C)O2)[C@H](C)[C@@H](O[C@@H]2O[C@H](C)C[C@H](N(C)C)[C@H]2O)[C@](C)(O)C[C@@H](C)CN(CCCNC(=S)Nc2ccc(Oc3ccccc3)nc2)[C@H](C)[C@@H](O)[C@]1(C)O.O=CO` [Example 146], the half-maximal inhibitory concentration (IC50) in assay [6] (read-out: IC50 D6) was 0.23 µg/mL; in assay [7] it was 0.142 µg/mL; in assay [8], 0.117 µg/mL.

For `CC[C@H]1OC(=O)[C@H](C)[C@@H](O[C@H]2C[C@@](C)(OC)[C@@H](O)[C@H](C)O2)[C@H](C)[C@@H](O[C@@H]2O[C@H](C)C[C@H](N(C)C)[C@H]2O)[C@](C)(O)C[C@@H](C)CN(CCCNC(=O)Nc2ccc3c(c2)CCC3)[C@H](C)[C@@H](O)[C@]1(C)O` [Example 64], the 50% inhibitory concentration (IC50) is 0.253 µg/mL (≈ 0.266 µM) in assay [6] (read-out: IC50 D6), 0.0915 µg/mL (≈ 0.0962 µM) in assay [7] and 0.07 µg/mL (≈ 0.0736 µM) in assay [8].

For the compound `CC[C@H]1OC(=O)[C@H](C)[C@@H](O[C@H]2C[C@@](C)(OC)[C@@H](O)[C@H](C)O2)[C@H](C)[C@@H](O[C@@H]2O[C@H](C)C[C@H](N(C)C)[C@H]2O)[C@](C)(O)C[C@@H](C)CN(CCCNC(=S)Nc2ccc(F)cc2)[C@H](C)[C@@H](O)[C@]1(C)O` [Example 99], the IC50 in assay [6] (read-out: IC50 D6) was found to be 0.302 µg/mL (≈ 0.32 µM); in assay [7] it was 0.131 µg/mL (≈ 0.139 µM); in assay [8], 0.0688 µg/mL (≈ 0.0728 µM).

For the compound `CC[C@H]1OC(=O)[C@H](C)[C@@H](O[C@H]2C[C@@](C)(OC)[C@@H](O)[C@H](C)O2)[C@H](C)[C@@H](O[C@@H]2O[C@H](C)C[C@H](N(C)C)[C@H]2O)[C@](C)(O)C[C@@H](C)CN(CCCNC(=S)Nc2ccc(OC)cc2)[C@H](C)[C@@H](O)[C@]1(C)O.O=CO` [Example 61], the concentration for half-maximal inhibition (IC50) was greater than 0.797 µg/mL in assay [6] (compared with azithromycin, read-out: IC50 D6 (class symbol)); 0.436 µg/mL in assay [7]; 0.253 µg/mL in assay [8].

As a reminder, the IC50 is the point on the concentration scale where inhibition reaches its midpoint.

Source of the values: US20080200404A1, “Novel Antimalarial 9A-Carbamoyl-Aminoalkyl and 9A-Thiocarbamoyl-Aminoalkyl Azalides” (priority 2005, published 2008).
